Measurements taken from PubChem BioAssay AID1963973 (Molecular Pharmacology Branch, DTP, NCI, 2024).
Where “and” joins values, the source holds several entries; their conditions need not be identical. Equal values may be shown once. Each block holds one molecule with its values, some of them ahead of it.

Test system: 883617-216-R-J1-PDC tumor spheroids, viability
Test: Anticancer human tumor 883617-216-R-J1-PDC patient-derived bladder carcinoma cell line growth inhibition [PI3K]
Conditions: spheroids with HUVEC and MSC; for viability, T/C: stronger effect = lower value
Description: Combinatorial screen of targeted agents with the PI3K inhibitors inavolisib, alpelisib, duvelisib, and copanlisib in multi-cell type tumor spheroids
A high-throughput screen of multi-cell type tumor spheroids was designed to identify active combinations of targeted small molecules and PI3K pathway inhibitors. Complex spheroids include a stromal component modeled by human endothelial cells (HUVEC) and fibroblasts modeled by human mesenchymal stem cells (MSCs). The concentration ranges selected for each drug and investigational agent were based upon clinically achievable concentrations if the clinical Cmax of the agent was known.
Compounds. The drugs and investigational agents: inavolisib (NSC800729), alpelisib (NSC765974), duvelisib (NSC772469), copanlisib (NSC816437), ipatasertib (NSC767898), afuresertib (NSC778305), talazoparib (NSC767125), sapanisertib (NSC764658), selumetinib (NSC741078), tovorafenib (DAY101, NSC766906), vemurafenib (NSC761431), ravoxertinib (NSC781343), sotorasib (NSC818433), MRTX1133 (NSC 836407), abemaciclib (NSC 768073), palbociclib (NSC758247), venetoclax (NSC 766270), SY5609 (NSC837396), enzalutamide (NSC755605), and darolutamide (NSC825331), were obtained from the National Cancer Institute (NCI) Developmental Therapeutics Program Chemical Repository. The FDA-approved anticancer drug set is available from the NCI Developmental Therapeutics Program. […] The stock solutions were prepared in dimethyl sulfoxide (DMSO, Sigma-Aldrich, St. Louis, MO, cat. D2650) at 800-fold the tested concentration and stored at -70 degrees C prior to their use. All drugs and investigational agents were tested over a range starting from a high concentration at or near the clinical Cmax and decreasing in half-log increments. If the clinical Cmax for an agent had not been determined, the highest concentration tested was 10 microM.
Cell Culture. All cells were maintained in an incubator at 37 degrees C and 5% CO2 with 95% humidity. The PDC lines were cultured according to standard operating procedures established by the NCI PDMR (https://pdmr.cancer.gov/sops/default.htm). All PDCs were thawed and cultured in Matrigel-coated flasks prepared with a working solution of 1X Ham's F-12 nutrient mix, without supplementation (Invitrogen, Waltham, MA, cat. 11765054), 100 U/mL penicillin-streptomycin (Invitrogen, cat. 15140122), and 2.5% Matrigel (Corning Inc., Corning, NY, cat. 354248) for the first three passages. The 354836-022-R-J1-PDC, 475296-252-R-J1-PDC, and 997726-040-R-J2-PDC lines were cultured in 6A media, which includes advanced DMEM/F-12 (Thermo Fisher Scientific, cat. 12634028), 10 mM HEPES (Thermo Fisher Scientific, cat. 15630080), 1X GlutaMAX supplement (Thermo Fisher Scientific, cat. 35050061), 0.1 mg/mL primocin (InvivoGen, San Diego, CA, cat. ant-pm-2), 10% defined fetal bovine serum, heat inactivated (HyClone Laboratories Inc., Logan, UT, cat. SH30070.03HI), 50% L-WRN conditioned media (ATCC, cat. CRL-3276), 1.25 mM N-Acetyl-L-cysteine (Sigma-Aldrich, cat. A9165), 10 mM nicotinamide (Sigma-Aldrich, cat. N0636), 1X B-27 supplement (Thermo Fisher Scientific, cat. 17504044), 1X N-2 supplement (Thermo Fisher Scientific, cat. 17502048), and 10 microM Y-27632 dihydrochloride (Tocris Bioscience, Bristol, United Kingdom, cat. 1254). The 624824-186-R-J2-PDC line was cultured in 6C/Colon 1B media, which includes all 6A media components plus 50 ng/mL human EGF recombinant protein (Thermo Fisher Scientific, cat. PHG0311). […]
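Note: spheroids exposed to agents for 7 days before the viability read.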

IC50 (curve of first compound, second compound 0.0316 µM): > 100 nM | IC50 (curve of first compound, second compound 0.1 µM): > 100 nM | IC50 (curve of first compound, second compound 0.316 µM): < 0.316 nM | IC50 (curve of first compound, second compound 1 µM): < 0.316 nM | IC50 (curve of first compound, second compound 3.16 µM): < 0.316 nM | IC50 (curve of first compound, second compound 10 µM): < 0.316 nM
SMILES: Cn1ncnc1[C@H]1c2n[nH]c(=O)c3cc(F)cc(c23)N[C@@H]1c1ccc(F)cc1 + Cc1nc(NC(=O)N2CCCC2C(N)=O)sc1-c1ccnc(C(C)(C)C(F)(F)F)c1
viability, T/C (second compound 0.0316 µM, first compound 0.000316 µM): 88.1% | viability, T/C (second compound 0.0316 µM, first compound 0.001 µM): 74% | viability, T/C (second compound 0.0316 µM, first compound 0.00316 µM): 68.2% | viability, T/C (second compound 0.0316 µM, first compound 0.01 µM): 68.5% | viability, T/C (second compound 0.0316 µM, first compound 0.0316 µM): 64.8% | viability, T/C (second compound 0.0316 µM, first compound 0.1 µM): 52.9% | viability, T/C (second compound 0.1 µM, first compound 0.000316 µM): 66.9% | viability, T/C (second compound 0.1 µM, first compound 0.001 µM): 67.4% | viability, T/C (second compound 0.1 µM, first compound 0.00316 µM): 65.7% | viability, T/C (second compound 0.1 µM, first compound 0.01 µM): 52.4% | viability, T/C (second compound 0.1 µM, first compound 0.0316 µM): 54.9% | viability, T/C (second compound 0.1 µM, first compound 0.1 µM): 52% | viability, T/C (second compound 0.316 µM, first compound 0.000316 µM): 43.5% | viability, T/C (second compound 0.316 µM, first compound 0.001 µM): 47.3% | viability, T/C (second compound 0.316 µM, first compound 0.00316 µM): 49.5% | viability, T/C (second compound 0.316 µM, first compound 0.01 µM): 45.5% | viability, T/C (second compound 0.316 µM, first compound 0.0316 µM): 35.4% | viability, T/C (second compound 0.316 µM, first compound 0.1 µM): 34.9% | viability, T/C (second compound 1 µM, first compound 0.000316 µM): 27.5% | viability, T/C (second compound 1 µM, first compound 0.001 µM): 31.6% | viability, T/C (second compound 1 µM, first compound 0.00316 µM): 23.1% | viability, T/C (second compound 1 µM, first compound 0.01 µM): 26.2% | viability, T/C (second compound 1 µM, first compound 0.0316 µM): 27.2% | viability, T/C (second compound 1 µM, first compound 0.1 µM): 21.3% | viability, T/C (second compound 3.16 µM, first compound 0.000316 µM): 16% | viability, T/C (second compound 3.16 µM, first compound 0.001 µM): 16.1% | viability, T/C (second compound 3.16 µM, first compound 0.00316 µM): 12% | viability, T/C (second compound 3.16 µM, first compound 0.01 µM): 13% | viability, T/C (second compound 3.16 µM, first compound 0.0316 µM): 14.1% | viability, T/C (second compound 3.16 µM, first compound 0.1 µM): 12% | viability, T/C (second compound 10 µM, first compound 0.000316 µM): 7.59% | viability, T/C (second compound 10 µM, first compound 0.001 µM): 8.2% | viability, T/C (second compound 10 µM, first compound 0.00316 µM): 6.62% | viability, T/C (second compound 10 µM, first compound 0.01 µM): 6.95% | viability, T/C (second compound 10 µM, first compound 0.0316 µM): 7.18% | viability, T/C (second compound 10 µM, first compound 0.1 µM): 5.36%

IC50 (curve of compound): > 10000 nM
SMILES: C#Cc1c(F)ccc2cc(O)cc(-c3ncc4c(N5CC6CCC(C5)N6)nc(OCC56CCCN5CC(F)C6)nc4c3F)c12 (centres undefined)
viability, T/C (compound 0.0316 µM): 99.5% [middle of 4 runs] | viability, T/C (compound 0.1 µM): 95.7% [middle of 4 runs] | viability, T/C (compound 0.316 µM): 100% [middle of 4 runs] | viability, T/C (compound 1 µM): 88% [middle of 4 runs] | viability, T/C (compound 3.16 µM): 80.5% (2×) and 102% and 88.1% | viability, T/C (compound 10 µM): 65.8% [middle of 4 runs]
